Assay results: patent US20130324520A1, “RXRG MODULATORS FOR THE TREATMENT OF CANCER” (SLOAN-KETTERING INSTITUTE FOR CANCER RESEARCH, priority 2011, published 2013)
Entries after “also recorded” stand apart in the source; their conditions may differ.

Experiments:
[1] = tested on: RB1 mutated retinoblastoma; assay: RXRG ligands on retinoblastoma cell growth; assay type: cell-based
Experimental: (§1) Colon, lung, pancreatic cancer, retinoblastoma and other cell lines were cultured in culture medium consisting of IMDM (Medium Lab, MSKCC, NY) with 10% FBS (SH3008803, HyClone, Thermo Scientific), 2 mM glutamine (Invitrogen), 55 μM beta-mercaptoethanol (Invitrogen), 1% Penicillin/streptomycin (Invitrogen), and 2.5 μg/ml Plasmocin (Invivogen), at 37° C. in a humidified incubator with 5% CO2. Melanoma cell lines were culture in RPMI with above additives.
(§2) Colon, lung, pancreatic, breast, prostate cancer cell lines and other cancer cell lines were cultured in 10 cm dishes or 24 well plates with complete IMDM or RPMI (for melanoma) with 30-50% confluence. […] DMSO was used for control. After 3-6 days treatment, cells were collected and counted with trypan blue. Dose-effectiveness curves were generated with series dilution of compounds in medium for treatment of cells.

RB177 = assay: RXRG ligands on retinoblastoma cell growth; assay type: cell-based
Experimental: as §1, §2

[2] = tested on: EGFR and KRAS activated NSCLC, pancreatic, and colon cancers; assay: Drug treatment on cancer cell lines, cell counting (group of lines); assay type: cell-based; settings: for cell growth / proliferation: KRAS or EGFR mutant colon, NSCLC, pancreatic, hepatoma cells, concentration not given
Source text: (§3) DMSO was used for control.

[3] = tested on: PTEN mutated prostate cancer, small cell lung cancer, and breast cancer; assay: as above; assay type: cell-based; settings: PTEN mutant lines as a group
Source text: as §3

H3255 = assay: Drug treatment on cancer cell lines, cell counting; assay type: cell-based; settings: EGFR mutated lung cancer
Source text: as §3

H820 = assay: Drug treatment on cancer cell lines, cell counting; assay type: cell-based; settings: EGFR mutated lung cancer
Source text: as §3

PC941102 = assay: Drug treatment on cancer cell lines, cell counting; assay type: cell-based; settings: KRAS mutated pancreatic cancer (PC1102)
Source text: as §3

PC931019 [4] = assay: Drug treatment on cancer cell lines, cell counting; assay type: cell-based; settings: for cell growth: KRAS mutated pancreatic cancer (PC1019); for growth inhibition, single agent / effect of combination with HX531 on growth: day 9; for growth inhibition, single agent: 6 uM HX531, 10 uM PD98059, 100 nM PD0325901; for effect of combination with HX531 on growth: MEK inhibitor plus 6 uM HX531
Source text: as §3

H1650 = assay: Drug treatment on cancer cell lines, cell counting; assay type: cell-based; settings: EGFR mutated lung cancer
Source text: as §3

H1975 [5] = assay: Drug treatment on cancer cell lines, cell counting; assay type: cell-based; settings: EGFR mutated lung cancer
Source text: as §3

PC930201 = assay: Drug treatment on cancer cell lines, cell counting; assay type: cell-based; settings: KRAS mutated pancreatic cancer (PC0201)
Source text: as §3

HCT116 = assay: Drug treatment on cancer cell lines, cell counting; assay type: cell-based; settings: day 3; for growth inhibition, single agent: 6 uM HX531, 10 uM PD98059, 100 nM PD0325901; for effect of combination with HX531 on growth: MEK inhibitor plus 6 uM HX531
Source text: as §3

A549 = assay: Drug treatment on cancer cell lines, cell counting; assay type: cell-based; settings: for effect of combination with HX531 on growth: MEK inhibitor plus HX531; for growth inhibition, single agent: day 3, 6 uM HX531, 10 uM PD98059, 100 nM PD0325901
Source text: as §3

[6] = patients; cited from earlier work
H1975 [7] = assay: Cell cycle analysis; assay type: cell-based; settings: EGFR mutant NSCLC, day 3
normal fibroblasts WI38 = assay: Drug treatment on cell lines, cell counting; assay type: cell-based; settings: UVI3003 10 uM (FIG. 23)
Source text: as §3

PC931019 [8] = assay: Cell cycle analysis; assay type: cell-based; settings: KRAS mutant pancreatic cancer, day 3
Experimental: After drug treatment, cells were collected for cell cycle analysis, RNA isolation, quantitative PCR, western blot, and immunofluorescence. For cell cycle analysis, retinoblastoma, neuroblastoma, lung, pancreatic, and colon cancer cells were collected and dissociated on days 3, 5, 7, 9, 11, and 16 after treatment. Cells were fixed by 70% cold ethanol alcohol while vortex, and put in −20° C. for storage. […] At 24 hours after treatment, 4 ug/ml Aphidicolin was added to cells with compounds for 24 hr. Aphidicolin was removed by centrifugation and PBS wash, and then added to new wells with fresh medium and compounds. Cells were collected and fixed before addition of aphidicolin, immediately after removal of aphidicolin, and every two hours thereafter until 16-18 hours.
The tubes with cells were taken out of the freezer and alcohol was removed by centrifugation. 150 ul of 0.06 mg/ml propidium iodide with 0.1% NF40 was added to the cells, and then 100 ul of 2 mg/ml of RNase was added to the cells. These were mixed well and incubated at 37° C. for 30 min. The cell ploidy according to DNA contents were measured in FACSCalibur with FL3-Width and FL3-Height as the parameter. Flowjo was used for analysis of the cell cycle changes.

SCLC = assay: Drug treatment on cancer cell lines, cell counting (group of lines); assay type: cell-based; settings: UVI3003 10 uM (FIG. 23); some PTEN mutated SCLC
Source text: as §3

Saos2 = assay: Drug treatment on cancer cell lines, cell counting; assay type: cell-based; settings: UVI3003 10 uM (FIG. 23)
Source text: as §3

MDA-MB-468 = assay: Drug treatment on cancer cell lines, cell counting; assay type: cell-based; settings: UVI3003 10 uM (FIG. 23)
Source text: as §3

H1755 = assay: Drug treatment on cancer cell lines, cell counting; assay type: cell-based; settings: UVI3003 10 uM (FIG. 23)
Source text: as §3

## CC1=C(/C=C/C(C)=C\C=C\C(C)=C\C(=O)O)C(C)(C)CCC1 [9 cis RA, 9-cis-Retinoic acid]
[1]; in vitro
  retinoblastoma cell growth: suppressed retinoblastoma cell growth
RB177
  cell growth: suppressed cell growth

## CCCCCCOc1cc2c(cc1N(C)c1ncc(C(=O)O)cn1)C(C)(C)CCC2(C)C [PA452]
[2]
  cell growth / proliferation: efficiently suppress
[3]
  cell growth: suppress the growth
H3255
  cell growth: sensitive
H820
  cell growth: sensitive
PC941102
  cell growth: sensitive
PC931019 [4]
  cell growth: sensitive
H1650
  cell growth: sensitive
H1975 [5]
  cell growth: sensitive
PC930201
  cell growth: sensitive

## COc1cccc(-c2cc(=O)c3ccccc3o2)c1N [PD98059]
HCT116
  growth inhibition, single agent: moderate growth inhibition
  effect of combination with HX531 on growth: Synergistic effects
PC931019 [4]
  growth inhibition, single agent: growth inhibition
  effect of combination with HX531 on growth: same synergistic effects
A549
  effect of combination with HX531 on growth: synergistic effects
  growth inhibition, single agent: moderate growth inhibition

## O=C(NOC[C@H](O)CO)c1ccc(F)c(F)c1Nc1ccc(I)cc1F [PD0325901]
[6]
  outcome of clinical trial (toxicity): terminated because of high toxicity in patients
HCT116
  growth inhibition, single agent: moderate growth inhibition
  effect of combination with HX531 on growth: Synergistic effects
PC931019 [4]
  growth inhibition, single agent: growth inhibition
  effect of combination with HX531 on growth: same synergistic effects
A549
  effect of combination with HX531 on growth: synergistic effects
  growth inhibition, single agent: moderate growth inhibition

## CCCCCOc1cc2c(cc1-c1cc(/C=C/C(=O)O)ccc1O)C(C)(C)CCC2(C)C [UVI3003]
[1]; UVI3003 10 uM (FIG. 23)
  relative cell number after treatment: not sensitive
H1975 [7]
  cell cycle, G1-S transition: inhibited G1-S transition
Normal fibroblasts WI38
  relative cell number after treatment: not sensitive
PC931019 [8]
  cell cycle, G1-S transition: similarly sensitive; also recorded: inhibited G1-S transition
[2]
  cell growth / proliferation: efficiently suppress
[2]; UVI3003 10 uM (FIG. 23), incl. gastric cancer
  relative cell number after treatment: sensitive
[3]
  cell growth: suppress the growth
SCLC
  relative cell number after treatment: sensitive
H3255
  cell growth: sensitive
H820
  cell growth: sensitive
PC941102
  cell growth: sensitive
Saos2
  relative cell number after treatment: not sensitive
MDA-MB-468
  relative cell number after treatment: sensitive
PC931019 [4]
  cell growth: sensitive
H1755
  relative cell number after treatment: sensitive
H1650
  cell growth: sensitive
H1975 [5]
  cell growth: sensitive
PC930201
  cell growth: sensitive
